The values that follow are results of earlier work, collected in patent publication US20090098211A1, “SOLID DOSAGE FORMS” (priority 2007, published 2009).

`CN1CC(=O)N2[C@H](c3ccc4c(c3)OCO4)c3[nH]c4ccccc4c3C[C@@H]2C1=O` [Tadalafil, (6R-trans)-6-(1,3-benzodioxol-5-yl)-2,3,6,7,12,12a-hexahydro-2-methyl-pyrazino[1′,2′:1,6]pyrido[3,4-b]indole-1,4-dione]: the “solubility in water (in words)” value (water) is recorded as “practically insoluble in water”. Further, the water solubility result (water at 25° C.) is recorded as “about 2 μg per mL”.
